This is an account of results in PubChem BioAssay (NCI).

Some test systems named below: CCRF-CEM leukemia; SN12C renal; SW-620 colon; SK-MEL-5 melanoma; NCI/ADR-RES ovarian; SF-295 CNS; BT-549 breast; PC-3 prostate; UACC-257 melanoma; LOX IMVI melanoma.
Test in all cases: NCI anticancer screen, dose series, 48 h

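All cell lines were grown in 96-well plates and treated with compound for 48 hours. Here, GI50 denotes the concentration required for 50% inhibition of growth. TGI: concentration producing complete growth inhibition.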

Turning to `O=C1Cc2cc(C(=O)NC3C[C@H]4CC[C@@H](C3)N4S(=O)(=O)CC3CCN(CCCC(F)(F)F)CC3)c(Cl)cc2N1` (stereo not given in full), the GI50 in the experiment with CCRF-CEM leukemia, in the experiment with SN12C renal, with SW-620 colon, with SK-MEL-5 melanoma, in the experiment on NCI/ADR-RES ovarian and in the experiment on SF-295 CNS was above 100 µM throughout. Further, the GI50 with BT-549 breast, in the experiment on PC-3 prostate, with UACC-257 melanoma and in the experiment on LOX IMVI melanoma was above 100 µM throughout. Besides, the TGI with CCRF-CEM leukemia, with SN12C renal, in the experiment on SW-620 colon, with SK-MEL-5 melanoma, with NCI/ADR-RES ovarian and in the experiment with SF-295 CNS was above 100 µM throughout. Moreover, the TGI in the experiment with BT-549 breast, in the experiment on PC-3 prostate, in the experiment on UACC-257 melanoma and in the experiment with LOX IMVI melanoma was above 100 µM in each case.
For the molecule `Cc1cc(N2CCN(C)CC2)n2nc(-c3ccc(Cl)cc3)nc2n1`, the TGI with CCRF-CEM leukemia, in the experiment on SN12C renal, in the experiment on SW-620 colon, in the experiment on SK-MEL-5 melanoma, in the experiment on NCI/ADR-RES ovarian and with SF-295 CNS was above 100 µM throughout. Also, the TGI in the experiment with BT-549 breast, with PC-3 prostate, in the experiment on UACC-257 melanoma and in the experiment with LOX IMVI melanoma was above 100 µM throughout.
Turning to `O=C1/C=C/[C@@H](O)[C@@H]2C[C@@H](O)C[C@H]2/C=C/CCC[C@H](C(F)(F)F)O1`, the GI50 was 0.205 µM with CCRF-CEM leukemia; 0.779 µM with SN12C renal; 0.142 µM in the experiment with SW-620 colon; 0.128 µM with SK-MEL-5 melanoma; 0.408 µM in the experiment on NCI/ADR-RES ovarian; above 27 µM in the experiment with SF-295 CNS. In addition, the GI50 was 0.211 µM in the experiment on BT-549 breast, 0.502 µM in the experiment with PC-3 prostate, 0.053 µM with UACC-257 melanoma and 0.137 µM in the experiment with LOX IMVI melanoma. For the same molecule, the TGI in the experiment with CCRF-CEM leukemia is 0.916 µM; in the experiment on SN12C renal it was 13.8 µM; in the experiment with SW-620 colon, 0.331 µM; in the experiment with SK-MEL-5 melanoma, 0.32 µM; in the experiment on NCI/ADR-RES ovarian it was 11.4 µM; in the experiment on SF-295 CNS, above 100 µM. The TGI in the experiment with BT-549 breast is 10.8 µM; in the experiment on PC-3 prostate, above 100 µM; with UACC-257 melanoma, 1.01 µM; with LOX IMVI melanoma, 0.388 µM.
In the case of `COC(=O)[C@H]1CCCN1C(=O)[C@H]1CCCN1C(=O)[C@H](Cc1c[nH]c2ccccc12)NC(=S)Nc1cc(C(F)(F)F)cc(C(F)(F)F)c1`, the GI50 was 7.23 µM in the experiment with CCRF-CEM leukemia; 7.32 µM in the experiment on SN12C renal; 9.18 µM with SW-620 colon; 5.14 µM with SK-MEL-5 melanoma; above 100 µM with NCI/ADR-RES ovarian; 2.77 µM in the experiment on SF-295 CNS. Also, the GI50 was 8.74 µM in the experiment with BT-549 breast, 3.47 µM in the experiment on PC-3 prostate, 5.87 µM in the experiment on UACC-257 melanoma and 3.19 µM in the experiment with LOX IMVI melanoma. Further, the TGI is above 100 µM with CCRF-CEM leukemia; above 100 µM in the experiment with SN12C renal; above 100 µM with SW-620 colon; above 100 µM in the experiment with SK-MEL-5 melanoma; above 100 µM in the experiment on NCI/ADR-RES ovarian; 12.9 µM in the experiment on SF-295 CNS. Moreover, the TGI in the experiment on BT-549 breast was 46 µM; with PC-3 prostate, above 100 µM; in the experiment on UACC-257 melanoma it was above 100 µM; with LOX IMVI melanoma it was 26.3 µM.
`COc1ccc(N(C)c2nc(N)nc3sc4c(c23)CCCC4)cc1`: the GI50 in the experiment with CCRF-CEM leukemia, in the experiment on SN12C renal, in the experiment with SW-620 colon, in the experiment on SK-MEL-5 melanoma, in the experiment on NCI/ADR-RES ovarian and with SF-295 CNS was below 0.01 µM throughout. Moreover, the GI50 is 0.0123 µM in the experiment on BT-549 breast, below 0.01 µM in the experiment on PC-3 prostate, 8.12 µM in the experiment on UACC-257 melanoma and below 0.01 µM in the experiment on LOX IMVI melanoma. Further, the TGI with CCRF-CEM leukemia came to 55.5 µM; in the experiment on SN12C renal it was 14 µM; in the experiment on SW-620 colon it was 16.4 µM; in the experiment on SK-MEL-5 melanoma, 0.505 µM; in the experiment with NCI/ADR-RES ovarian, 14.4 µM; in the experiment with SF-295 CNS, 13.1 µM. For the same molecule, the TGI is 10.5 µM in the experiment on BT-549 breast, 15.6 µM with PC-3 prostate, 26.3 µM with UACC-257 melanoma and 15.3 µM in the experiment with LOX IMVI melanoma.
On to `CN(CC(=O)N(Cc1ccc(C2CCCCC2)cc1)c1ccc(C(=O)O)cc1)S(=O)(=O)c1c(F)c(F)c(F)c(F)c1F`, for which the GI50 with CCRF-CEM leukemia is 2.69 µM; with SN12C renal, 2.22 µM; in the experiment with SW-620 colon, 2.03 µM; in the experiment on SK-MEL-5 melanoma, 1.84 µM; in the experiment with NCI/ADR-RES ovarian, 2.14 µM; in the experiment with SF-295 CNS it was 15.2 µM. The GI50 in the experiment on BT-549 breast is 2.23 µM; with PC-3 prostate, 2.08 µM; in the experiment on UACC-257 melanoma, 2.01 µM; with LOX IMVI melanoma it was 1.61 µM. Further, the TGI is 6.81 µM in the experiment on CCRF-CEM leukemia; 4.88 µM in the experiment with SN12C renal; 4.05 µM with SW-620 colon; 3.58 µM in the experiment on SK-MEL-5 melanoma; 5.26 µM with NCI/ADR-RES ovarian; 29.4 µM in the experiment on SF-295 CNS. For the same molecule, the TGI is 4.36 µM in the experiment with BT-549 breast, 3.96 µM in the experiment on PC-3 prostate, 3.71 µM with UACC-257 melanoma and 3.03 µM in the experiment with LOX IMVI melanoma.
For the molecule `Cc1cc(Cl)nc(N(CCCNc2ccnc3cc(Cl)ccc23)Cc2ccco2)n1`, the GI50 in the experiment on CCRF-CEM leukemia is 2.32 µM; in the experiment on SN12C renal, 2.45 µM; with SW-620 colon, 2.5 µM; in the experiment with SK-MEL-5 melanoma, 1.54 µM; in the experiment with NCI/ADR-RES ovarian it was 1.76 µM; in the experiment on SF-295 CNS, 1.28 µM. Besides, the GI50 in the experiment on BT-549 breast is 2.16 µM; with PC-3 prostate, 1.87 µM; with UACC-257 melanoma it was 2.21 µM; in the experiment with LOX IMVI melanoma, 2.07 µM. For the same molecule, the TGI in the experiment with CCRF-CEM leukemia was found to be 8.93 µM; in the experiment on SN12C renal it was 9.87 µM; in the experiment on SW-620 colon, 10.3 µM; in the experiment on SK-MEL-5 melanoma it was 3.01 µM; in the experiment with NCI/ADR-RES ovarian, 6.87 µM; in the experiment with SF-295 CNS, 2.81 µM. For the same molecule, the TGI amounted to 6.47 µM with BT-549 breast, 6 µM in the experiment with PC-3 prostate, 5.76 µM in the experiment on UACC-257 melanoma and 5.4 µM in the experiment on LOX IMVI melanoma.
With `CCn1c(-c2nonc2N)nc2cncc(C(=O)N3CC[C@H](N)C3)c21`, the GI50 with CCRF-CEM leukemia was 15.2 µM; in the experiment with SN12C renal, above 25 µM; with SW-620 colon, above 25 µM; in the experiment with SK-MEL-5 melanoma, above 25 µM; with NCI/ADR-RES ovarian, above 25 µM; in the experiment with SF-295 CNS, 5.05 µM. In addition, the GI50 in the experiment with BT-549 breast was 3.92 µM; with PC-3 prostate, above 25 µM; in the experiment with UACC-257 melanoma, above 25 µM; in the experiment with LOX IMVI melanoma, above 25 µM. Also, the TGI in the experiment with CCRF-CEM leukemia, in the experiment on SN12C renal, in the experiment on SW-620 colon, in the experiment with SK-MEL-5 melanoma, in the experiment with NCI/ADR-RES ovarian and in the experiment on SF-295 CNS was above 25 µM in each case. Moreover, the TGI in the experiment on BT-549 breast, in the experiment with PC-3 prostate, in the experiment on UACC-257 melanoma and in the experiment with LOX IMVI melanoma was above 25 µM throughout.
As for `COC(=O)CSSCc1ccc([N+](=O)[O-])cc1`, the TGI was determined as 88 µM in the experiment with CCRF-CEM leukemia; 34.1 µM in the experiment with SN12C renal; 36.8 µM in the experiment with SW-620 colon; 50.9 µM in the experiment with SK-MEL-5 melanoma; 47.1 µM in the experiment on NCI/ADR-RES ovarian; 43 µM in the experiment with SF-295 CNS. Moreover, the TGI in the experiment on BT-549 breast worked out at 41.7 µM; in the experiment on PC-3 prostate, 81 µM; with UACC-257 melanoma, 98.4 µM; with LOX IMVI melanoma, 30.3 µM.
For `CC[n+]1c(/C=C/C=C2\N(C)c3ccccc3C2(C)C)sc2ccccc21`, the GI50 in the experiment on CCRF-CEM leukemia was 4.96 µM; with SN12C renal, 4.16 µM; in the experiment with SW-620 colon, 4.19 µM; in the experiment on SK-MEL-5 melanoma, 3.79 µM; in the experiment on NCI/ADR-RES ovarian, 4.26 µM; in the experiment with SF-295 CNS, 3.88 µM. Also, the GI50 in the experiment on BT-549 breast was 4.3 µM; with PC-3 prostate, 4.29 µM; with UACC-257 melanoma it was 4.64 µM; in the experiment on LOX IMVI melanoma, 4 µM. The TGI in the experiment on CCRF-CEM leukemia turned out to be 18.1 µM; in the experiment with SN12C renal it was 8 µM; in the experiment on SW-620 colon, 8.27 µM; in the experiment on SK-MEL-5 melanoma, 7.33 µM; with NCI/ADR-RES ovarian, 8.9 µM; with SF-295 CNS it was 7.55 µM. The TGI with BT-549 breast was 8.6 µM; in the experiment with PC-3 prostate it was 11.3 µM; with UACC-257 melanoma, 9.02 µM; in the experiment on LOX IMVI melanoma, 8.48 µM.
For `Cn1cc(C2=C(c3cn(CCCCCSC(=N)N)c4ccccc34)C(=O)NC2=O)c2ccccc21`, the GI50 in the experiment on CCRF-CEM leukemia is 1.93 µM; in the experiment with SN12C renal, 2.67 µM; in the experiment with SW-620 colon, 2.96 µM; in the experiment with SK-MEL-5 melanoma, 3.28 µM; in the experiment with NCI/ADR-RES ovarian, 8.18 µM; in the experiment with SF-295 CNS, 1.76 µM. Moreover, the GI50 in the experiment on BT-549 breast was 3.65 µM; in the experiment on PC-3 prostate, 2.68 µM; with UACC-257 melanoma, 4.01 µM; in the experiment with LOX IMVI melanoma it was 2.92 µM. The TGI in the experiment on CCRF-CEM leukemia was 5.87 µM; with SN12C renal it was 6.01 µM; in the experiment on SW-620 colon, 6.54 µM; in the experiment on SK-MEL-5 melanoma it was 6.67 µM; in the experiment on NCI/ADR-RES ovarian, 21 µM; in the experiment with SF-295 CNS, 5.38 µM. Moreover, the TGI with BT-549 breast was 7.12 µM; in the experiment with PC-3 prostate it was 6.02 µM; with UACC-257 melanoma it was 7.47 µM; with LOX IMVI melanoma it was 6.48 µM.
